# Data: paper PMC11904948, “Peptide‐Drug Conjugate for Therapeutic Reprogramming of Tumor‐Associated Macrophages in Breast Cancer” (Advanced Science, 2025)
# Legend:
# orthotopic 4T1 tumors = test: In vivo photodynamic therapy study in orthotopic 4T1; set-up: species or system Balb/c mice
# Experimental: Figure 5 In vitro and in vivo photodynamic therapy with MACTIDE‐V. A) Structure of MACTIDE‐V. B) MACTIDE‐V, CtrlPep‐V, and DOX were incubated with primary human macrophages (obtained from monocytes derived from human blood buffy coat) at 30 µM for 1 h at 37 °C, followed by 2 washes with media. Then, the groups shown in pink were irradiated with 10 J cm^−2 (irradiance: 170 mW cm^−2, spot diameter: 0.5 cm). […] For the irradiated groups, 4 h after administration of conjugates or PBS, the mice were irradiated with 100 J cm^−2; shown is primary tumor volume progression during treatment. Gray arrows indicate injection days. D) Bodyweight during the treatment as % of the initial one. E) Representative mIHC images of PBS, CtrlPep‐V, and MACTIDE‐V‐treated tumors, 20X magnification, scale bar = 100 µm, white triangles point to Foxp3^+ cells. F) CD8^+ T cells, CD4^+ T cells, and Treg density, n = 6 mice/group, with every dot representing the mean cell density of each tumor obtained from 20 images. G) CD8^+ T cells density in CK8^+‐dense tumor regions. n = 5 mice/group, with every dot representing the mean cell density of each tumor obtained from 20 images. Median ± interquartile range. One‐way ANOVA with multiple comparisons, ^* p ≤ 0.05, ^** p ≤ 0.01.
# Prompted by the consistent laser‐induced and preferential toxicity of MACTIDE‐V on IL‐4‐stimulated macrophages, we decided to evaluate its in vivo therapeutic effect on mice survival in the orthotopic 4T1 model. […] This prompted us to further investigate the effect of MACTIDE‐V (‐), which hereafter will be denoted simply as “MACTIDE‐V”. To obtain further information on the effect of MACTIDE‐V in this tumor model, we investigated T cell infiltration in treated tumors, using multiplex immunohistochemistry (mIHC), comparing MACTIDE‐V (‐) group to PBS and CtrlPep‐V (‐) groups.
# Orthotopic tumors were induced by injecting 5×10^4 4T1 cells in 50 µL of PBS subcutaneously into the 4th mammary fat pad of 8–12‐week‐old female Balb/c mice. When tumors reached ≈40 mm^3, mice were sorted into groups: MACTIDE‐V (+), MACTIDE‐V (‐), CtrlPep‐V (+), CtrlPep‐V (‐), MACTIDE (‐), and PBS (+). Tumors were measured using a digital caliper (Mitutoyo) and volume was calculated using (W^2 × L)/2 formula, where W is the width of a tumor and L is the length. Each group had six mice. The first intraperitoneal injection (30 nmol) was carried out on day 9 post‐tumor induction. 4 h post‐injection, the tumor area was shaved to lessen laser scattering and tumors were irradiated with 100 J cm^−2 using the NIR laser source for PDT described above. Each tumor was measured, and the spot size was adjusted every time, keeping the radiation dose always constant. Irradiation of the tumors was done in complete darkness under anesthesia. Mice recovered on a heating pad and eye drops were applied to avoid eye dryness. All mice, whether irradiated or not, were anesthetized to keep the handling conditions the same. Mouse bodyweights and tumor volumes were monitored every other day. The sacrifice of mice began on day 23 based on their tumor sizes (over 1500 mm^3) or cachexia. The final mice were sacrificed on day 36 post‐tumor induction. Tumor volume curves are shown until day 23 when mice elimination began, and the sample number became too small for statistical comparison. Survival was analyzed using GraphPad Prism to plot Kaplan–Meier survival curves and perform the Mantel–Cox test for statistical analysis. Tumors taken on similar days were analyzed using mIHC.
# The staining of 4 µm‐thick formalin‐fixed paraffin‐embedded (FFPE) tissue sections for mIHC analysis was carried out using the tyramide signal amplification‐based Opal method (Akoya Biosciences) on a Leica BOND RX automated immunostainer (Leica Microsystems). For each staining cycle, FFPE slides were deparaffinized and subjected to heat‐induced epitope retrieval at 97 or 100 °C using BOND epitope retrieval solutions ER1 or ER2 (Leica Biosystems).
# [1] = Hepatic and renal toxicity serum levels in healthy mice; assay type: in vivo; details: 48 h after one i.p. dose of 3 mg/Kg, healthy Balb/c mice, n = 4
# Experimental: To investigate potential off‐target risk in vivo caused by MACTIDE‐V we analyzed the serum levels of the hepatic enzyme alanine aminotransferase (ALAT) following a 3 mg Kg^−1 dose of MACTIDE‐V in healthy mice. If MACTIDE‐V causes off‐target inflammation, it would likely occur in the liver (the organ that expresses the MACTIDE receptor) and would reflect on ALAT levels (liver inflammation produces a > 2‐fold increase in ALAT^[ [35] ^]).
# Table S1. Hepatic and renal toxicity analysed following one dose of MACTIDE-V. Hepatic and renal toxicology serum levels of Crea and ALAT 48 h after i.p.-administration of MACTIDE-V (3 mg/kg) in healthy Balb/c mice (n=4). Normal ranges were obtained from Mouse Phenome Database by The Jackson Laboratory.
# Solubility in water = assay type: physicochemical; details: method not given
# Source text: Verteporfin (V), is a photosensitizer and inhibitor of the activation of YAP.^[ [41] ^] […] Verteporfin, in its liposomal formulation Visudyne, is an approved drug for certain ophthalmological indications. In clinical trials for cancer therapy, Verteporfin is mostly used for photodynamic therapy (clinical trial identifiers: NCT03067051, NCT03033225, NCT04590664).
# [2] = non-irradiated, versus PBS and CtrlPep‐V (‐), n = 6 mice/group
substance,measurement,setting,value
Vert‐Ahx‐G(CTKSIPPIC)SPGAK‐OH (disulfide) [MACTIDE‐V],mice survival,"orthotopic 4T1 tumors; Kaplan–Meier, Mantel–Cox test",no significant differences
same,"primary tumor volume, non‐irradiated (‐)","orthotopic 4T1 tumors; i.p. 30 nmol (1 mg Kg^−1 in Verteporfin), no laser, n = 6/group, significant respect to PBS",strongest tumor volume reduction
same,"primary tumor growth, irradiated (+)","orthotopic 4T1 tumors; i.p. 30 nmol, irradiated 100 J cm^−2 4 h after administration, n = 6/group, versus control groups, not statistically significant",slowed down the tumor growth
same,"body weight, non‐irradiated (‐)","orthotopic 4T1 tumors; i.p. 30 nmol, no laser, % of initial bodyweight",negligible effect on body weight
same,CD8^+ T cell density in CK8^+‐dense tumor regions (mIHC),"orthotopic 4T1 tumors; non-irradiated, n = 5 mice/group",higher CD8^+ T cell density
same,CD8^+ T cell infiltration in tumors (mIHC),orthotopic 4T1 tumors; [2],significantly higher infiltration of CD8^+ T cells
same,density of regulatory T cells (Tregs) in tumors (mIHC),orthotopic 4T1 tumors; [2],no differences in the density of regulatory T cells
same,"Creatinine, serum",[1]; normal range 10-36,11.8 ± 1 µM
same,"Alanine aminotransferase, serum",[1]; normal range 50-90,52 ± 10.5 U/I
same,solubilization of Verteporfin by conjugation,Solubility in water,able to solubilize Verteporfin
